# Reference: patent publication US20240315990A1, “Adelmidrol For Use In Diseases Characterized By Insufficient Agonism Of PPAR-GAMMA Receptor” (Epitech Group S.P.A., priority 2016, published 2024)
# Target: T1, PPAR-gamma receptor (Rattus norvegicus, UniProt O88275)
# T1 construct: from tissue; host or cells: live rat (in vivo, paw edema model)
# T1 sequence (O88275 1-505): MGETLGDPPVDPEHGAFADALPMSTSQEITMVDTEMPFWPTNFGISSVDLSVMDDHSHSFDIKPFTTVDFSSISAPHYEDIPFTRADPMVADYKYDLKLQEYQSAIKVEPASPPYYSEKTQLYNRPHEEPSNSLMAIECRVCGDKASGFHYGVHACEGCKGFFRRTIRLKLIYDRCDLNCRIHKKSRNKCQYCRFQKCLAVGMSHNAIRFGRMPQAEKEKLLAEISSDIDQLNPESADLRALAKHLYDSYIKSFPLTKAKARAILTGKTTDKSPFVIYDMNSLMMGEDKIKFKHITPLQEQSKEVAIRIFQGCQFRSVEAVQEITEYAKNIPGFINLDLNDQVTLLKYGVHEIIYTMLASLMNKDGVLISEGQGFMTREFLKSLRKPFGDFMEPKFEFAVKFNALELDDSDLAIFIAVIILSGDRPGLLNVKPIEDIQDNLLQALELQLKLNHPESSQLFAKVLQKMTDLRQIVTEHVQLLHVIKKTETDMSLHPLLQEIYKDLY
# Test: carrageenan-induced rat paw edema with PPAR-gamma antagonist GW9662, residence time of the paw on the hot plate
# Format: in vivo
# Conditions: GW9662 1 mg/kg i.p. 30 min before CAR, Adelmidrol 10 mg/kg i.p.
# Method: The experimental model of carrageenan-induced rat paw edema is as shown above. In this experiment, the effect was assessed by measuring the residence time of the animal's paw on the hot plate, thus obtaining percentage data with respect to the control treated with carrageenan alone.
# The rats (10 animals per group) were divided into the following experimental groups: • CAR+physiological solution; • CAR+GW9662 (1 mg/kg)+Adelmidrol (10 mg/kg); GW9662 was administered i.p. 30 min before injecting CAR and Adelmidrol (i.p.) when injecting CAR; • CAR+Adelmidrol (10 mg/kg); Adelmidrol was administered i.p. when injecting CAR.
smiles,measurement,value
"O=C(Nc1ccccc1)c1cc([N+](=O)[O-])ccc1Cl [GW9662, reference compound]",effect of pretreatment with PPAR-gamma antagonist on the protective action of Adelmidrol,antagonized the effect of Adelmidrol thus substantially abolishing the protective action thereof
